Consider eight compounds from patent US4213984A, “11-(Piperazino-acetyl)-5,11-di hydro-6H-pyrido[2,3-b][1,4]benzodiazepin-6-ones and salts thereof” (Boehringer Ingelheim GmbH, priority 1977, dated 1980).

The subject of one series is guinea pig colon. Kind of series: spasmolytic effect in vitro on the guinea pig colon, acetylcholine-induced spasms, compared with atropinesulfate. The settings on record: acetylcholine spasm, relative to Atropine = 1. The procedure: (§1) The compounds were examined with regard to their inhibiting effect on the formation of stress ulcers in rats and their spasmolytic effect, related to atropine, with consideration of their acute toxicity.
The spasmolytic effect was determined in vitro on the guinea pig colon, using the experimental arrangement according to R. Magnus, Pflugers Archiv, 102, pp. 123 (1904). Acetylcholine was taken to induce spasms, the substance for comparison was atropinesulfate. The spasticum was administered one minute before the administration of the spasmolytic substance, and the spasmolytic was allowed to take effect for 1 minute.

Another series relates to white mice. Description: acute toxicity after peroral administration to fasted white mice. It counts as in vivo. The settings on record: mouse, six mice per dosage, at the LD50 dose. The protocol: (§2) The acute toxicity was determined after peroral administration of the test substance to fasted white mice with a body weight of 18 to 20 gm. The observation period was 14 days. For each dosage a group of six mice was used.

Test in series [1]: as above
It counts as in vivo. The settings on record: in vivo, po, mouse, observation period 14 days, read-out: LD50 peroral mgm/kg mouse. The protocol:
as §2

A further series relates to stress ulcers in rats. Kind of series: inhibiting effect on the formation of stress ulcers in rats (Takagi and Okabe), peroral. The following applies: po, rat; for inhibition in vivo at 12.5 mg/kg: 12.5 mgm/kg, read-out: Ulcer inhibition in % (rat) after peroral administration of 12.5 mgm/kg; for inhibition in vivo at 25 mg/kg: 25 mgm/kg, read-out: Ulcer inhibition in % (rat) after peroral administration of 25 mgm/kg; for inhibition in vivo at 50 mg/kg: 50 mgm/kg, read-out: Ulcer inhibition in % (rat) after peroral administration of 50 mgm/kg. It counts as in vivo. The procedure:
as §1
The inhibiting effect on the formation of stress ulcers in rats was determined according to the method of K. Takagi and S. Okabe, Jap.Journ.Pharmac. 18,pp. 9 to 18 (1968). Fed female rats with a body weight between 220 and 260 gm were individually put into small wire cages and were subsequently kept vertically submerged in a water bath which was kept constant at a temperature of 23° C. for 16 hours, so that only the heads and the breastbones of the animals were above the water surface. The test compounds were administered perorally 5 to 10 minutes before. With each substance five animals were treated. 1 ml of a 0.9% physiological sodium chloride solution or 1 ml of a 1% tylose solution was administered to the control animals in the same way. After 18 hours the animals were killed by an overdose of ethyl chloride, the stomachs were excised, cut along the big curvature and spread on a cork plate. The evaluation was carried out according to the methods of Marazzi-Uberti and Turba, Med. Exp. 4, pp. 284 to 292 (1961), and Takagi and Okabe (supra)

Regarding `C=C(C)CN1CCN(CC(=O)N2c3ccccc3C(=O)Nc3cccnc32)CC1` [A, 5,11-Dihydro-11-{[4-(2-methyl-allyl)-1-piperazinyl]acetyl}-6H-pyrido[2,3-b][1,4]benzodiazepin-6-one], the “Spasmolysis (acetylcholine) in respect to Atropine = 1” value (“Spasmolysis (acetylcholine)” for short) with guinea pig colon is on record as 1/330. Moreover, in the series on white mice, the “number of animals that died” value is recorded as “+ (means, 0 of 6 animals died)”. For the same compound, the LD50 at 336 h in series [1] was above 3000 mg/kg. In addition, in the series with stress ulcers in rats, the inhibition in vivo at 12.5 mg/kg is 32%, the inhibition in vivo at 25 mg/kg was determined as 52% and the inhibition in vivo at 50 mg/kg worked out at 90%.

For the compound `CC(C)=CCN1CCN(CC(=O)N2c3ccccc3C(=O)Nc3cccnc32)CC1.Cl.Cl` [B, 5,11-Dihydro-11-{[4-(3-methyl-but-2-enyl)-1-piperazinyl]acetyl}-6H-pyrido[2,3-b][1,4]benzodiazepin-6-one dihydrochloride], the “Spasmolysis (acetylcholine)” value in the series on guinea pig colon is on record as 1/200. In the series on white mice, the “number of animals that died” value is listed as “+ (means, 0 of 6 animals died)”. In series [1], the LD50 at 336 h is above 1500 mg/kg. In the series with stress ulcers in rats, the inhibition in vivo at 12.5 mg/kg was 52%, the inhibition in vivo at 25 mg/kg was 63% and the inhibition in vivo at 50 mg/kg stood at 84%.

For the compound `CC(C)(C)CN1CCN(CC(=O)N2c3ccccc3C(=O)Nc3cccnc32)CC1` [C, 5,11-Dihydro-11-{[4-(2,2-dimethyl-propyl)-1-piperazinyl]acetyl}-6H-pyrido[2,3-b][1,4]benzodiazepin-6-one], the “Spasmolysis (acetylcholine)” value in the series with guinea pig colon is 1/70. In the series on white mice, the “number of animals that died” value is listed as “+ (means, 0 of 6 animals died)”. For the same compound, in series [1], the LD50 at 336 h was above 1500 mg/kg. Also, in the series with stress ulcers in rats, the inhibition in vivo at 12.5 mg/kg was 39%, the inhibition in vivo at 25 mg/kg was determined as 61% and the inhibition in vivo at 50 mg/kg came to 95%.

Take `O=C1Nc2cccnc2N(C(=O)CN2CCN(CC34CC5CC(CC(C5)C3)C4)CC2)c2ccccc21` [D, 11-{[4-(1-Adamantyl-methyl)-1-piperazinyl]acetyl}-5,11-dihydro-6-H-pyrido[2,3-b][1,4]benzodiazepin-6-one]: in the series on guinea pig colon, the “Spasmolysis (acetylcholine)” value is 1/86. For the same compound, the “number of animals that died” value in the series with white mice is listed as “+ (means, 0 of 6 animals died)”. In addition, the LD50 at 336 h in series [1] is above 3000 mg/kg. In addition, in the series on stress ulcers in rats, the inhibition in vivo at 12.5 mg/kg stood at 26%, the inhibition in vivo at 25 mg/kg is 47% and the inhibition in vivo at 50 mg/kg was 79%.

For `O=C1Nc2cccnc2N(C(=O)CN2CCN(Cc3ccc4c(c3)OCO4)CC2)c2ccccc21` [E, 5,11-Dihydro-11-{[4-(3,4-methylenedioxy-benzyl)-1-piperazinyl]-acetyl}-6H-pyrido[2,3-b][1,4]benzodiazepin-6-one], the “Spasmolysis (acetylcholine)” value with guinea pig colon was 1/78. In the series on white mice, the “number of animals that died” value was “+++ (means, 2 of 6 animals died)”. Besides, in series [1], the LD50 at 336 h was above 3000 mg/kg. In addition, in the series on stress ulcers in rats, the inhibition in vivo at 12.5 mg/kg was 37%, the inhibition in vivo at 25 mg/kg turned out to be 73% and the inhibition in vivo at 50 mg/kg was found to be 95%.

With `CC1CN(C)CCN1CC(=O)N1c2ccccc2C(=O)Nc2cccnc21.Cl` (stereo not drawn) [F, 5,11-Dihydro-11-[(2,4-dimethyl-1-piperazinyl)acetyl]-6H-pyrido-[2,3-b][1,4]benzodiazepin-6-one-hydrochloride], in the series on guinea pig colon, the “Spasmolysis (acetylcholine)” value is listed as 1/130. Further, the “number of animals that died” value with white mice is recorded as “++ (means, 1 of 6 animals died)”. For the same compound, in series [1], the LD50 at 336 h is above 3000 mg/kg. Further, in the series on stress ulcers in rats, the inhibition in vivo at 12.5 mg/kg was 84%, the inhibition in vivo at 25 mg/kg is 90% and the inhibition in vivo at 50 mg/kg was 95%.

In the case of `CN1C(=O)c2ccccc2N(C(=O)CN2CCN(Cc3ccc4c(c3)OCO4)CC2)c2ncccc21` [G, 5,11-Dihydro-5-methyl-11-{[4-(3,4methylenedioxy-benzyl)-1-piperazinyl]acetyl}-6H-pyrido[2,3-b][1,4]benzodiazepin-6-one], the “Spasmolysis (acetylcholine)” value in the series on guinea pig colon was 1/290. Moreover, the “number of animals that died” value in the series with white mice is given as “+++ (means, 2 of 6 animals died)”. For the same compound, the LD50 at 336 h in series [1] was above 1500 mg/kg. Also, in the series on stress ulcers in rats, the inhibition in vivo at 12.5 mg/kg came out at 21%, the inhibition in vivo at 25 mg/kg worked out at 58% and the inhibition in vivo at 50 mg/kg is 90%.

Consider `O=C1Nc2cccnc2N(C(=O)CN2CCN(CC=Cc3ccccc3)CC2)c2ccccc21` [H, 11-[(4-Cinnamyl-1-piperazinyl)acetyl]-5,11-dihydro-6H-pyrido-[2,3-b][1,4]benzodiazepin-6-one], for which, in the series on guinea pig colon, the “Spasmolysis (acetylcholine)” value was 1/700. Also, the “number of animals that died” value in the series with white mice is “++++ (means, 4 of 6 animals died)”. The LD50 at 336 h in series [1] was around 3000 mg/kg. For the same compound, in the series on stress ulcers in rats, the inhibition in vivo at 12.5 mg/kg amounted to 53%, the inhibition in vivo at 25 mg/kg is 69% and the inhibition in vivo at 50 mg/kg was found to be 95%.
